According to ChEMBL document CHEMBL3045969, “Synthesis and evaluation of some new 4-aminopyridine derivatives as a potent antiamnesic and cognition enhancing drugs” (Med Chem Res, 2012):

Columns and labels:
Rattus norvegicus [1] = test: Antiamnesic activity in scopolamine-induced amnesia Charles Foster albino Rattus norvegicus (rat) model assessed as transfer latency time at 200 mg/kg, ip measured after 30 min by elevated plus maze test; format: functional; conditions: route intraperitoneal
Rattus norvegicus [2] = test: Antiamnesic activity in scopolamine-induced amnesia Charles Foster albino Rattus norvegicus (rat) model assessed as transfer latency time at 200 mg/kg, ip ip for 2 days measured 1 hr post last dose on day 2 by elevated plus maze test; format: functional; conditions: route intraperitoneal
Rattus norvegicus [3] = test: Cognition enhancing activity in Charles Foster albino Rattus norvegicus (rat) at 200 mg/kg, ip measured 30 min post dose by elevated plus maze test; format: functional; conditions: route intraperitoneal
Rattus norvegicus [4] = test: Cognition enhancing activity in Charles Foster albino Rattus norvegicus (rat) assessed as transfer latency time at 200 mg/kg, ip for 2 days measured 1 hr post last dose on day 2 by elevated plus maze test; format: functional; conditions: route intraperitoneal
Rattus norvegicus [5] = test: (§1) Inhibition of AChE in Charles Foster albino Rattus norvegicus (rat) assessed as hydrolysis of acetylthiocholine iodide per mg of protein in hippocampus at 5 mg/kg, po qd for 7 days measured 1 hr post last dose on day 7 by spectrophotometry (reference value: […]/mg protein); format: functional
Rattus norvegicus [6] = test: Cognition enhancing activity in Charles Foster albino Rattus norvegicus (rat) assessed as transfer latency time at 5 mg/kg, po qd for 8 days measured 1 hr post last dose on day 8 by elevated plus maze test; format: functional
Rattus norvegicus [7] = test: Antiamnesic activity in scopolamine-induced amnesia Charles Foster albino Rattus norvegicus (rat) model assessed as transfer latency time at 10 mg/kg, po qd for 7 days measured 1 hr post last dose on day 7 by elevated plus maze test; format: functional
Rattus norvegicus [8] = test: Antiamnesic activity in po dosed scopolamine-induced amnesia Charles Foster albino Rattus norvegicus (rat) model assessed as transfer latency time administered once daily for 8 days measured 1 hr post last dose on day 8 by elevated plus maze test; format: functional, organism-based
Rattus norvegicus [9] = test: as §1, with “AChE in po dosed Charles Foster” for “AChE in Charles Foster”, “in hippocampus administered po qd” for “in hippocampus at 5 mg/kg, po qd”; format: functional, organism-based
Rattus norvegicus [10] = test: (§2) Inhibition of AChE in Charles Foster albino Rattus norvegicus (rat) assessed as hydrolysis of acetylthiocholine iodide per mg of protein in prefrontal cortex at 10 mg/kg, po qd for 7 days measured 1 hr post last dose on day 7 by spectrophotometry (reference value: […]/mg protein); format: functional
Rattus norvegicus [11] = test: Antiamnesic activity in scopolamine-induced amnesia Charles Foster albino Rattus norvegicus (rat) model assessed as transfer latency time at 5 mg/kg, po qd for 7 days measured 1 hr post last dose on day 7 by elevated plus maze test; format: functional
Rattus norvegicus [12] = test: as §2, with “AChE in po dosed Charles Foster” for “AChE in Charles Foster”, “prefrontal cortex administered qd for” for “prefrontal cortex at 10 mg/kg, po qd for”; format: functional, organism-based
Rattus norvegicus [13] = test: Inhibition of AChE in po dosed Charles Foster albino Rattus norvegicus (rat) assessed as hydrolysis of acetylthiocholine iodide per mg of protein in hypothalamus administered qd for 7 days measured 1 hr post last dose on day 7 by spectrophotometry (reference value: […]/mg protein); format: functional, organism-based
Rattus norvegicus [14] = test: Inhibition of AChE in Charles Foster albino Rattus norvegicus (rat) assessed as hydrolysis of acetylthiocholine iodide per mg of protein in hippocampus at 10 mg/kg, po qd for 7 days measured 1 hr post last dose on day 7 by spectrophotometry (reference value: […]/mg protein); format: functional
Rattus norvegicus [15] = test: Inhibition of AChE in Charles Foster albino Rattus norvegicus (rat) assessed as hydrolysis of acetylthiocholine iodide per mg of protein in prefrontal cortex at 5 mg/kg, po qd for 7 days measured 1 hr post last dose on day 7 by spectrophotometry (reference value: […]/mg protein); format: functional
Rattus norvegicus [16] = test: Antiamnesic activity in scopolamine-induced amnesia Charles Foster albino Rattus norvegicus (rat) model assessed as transfer latency time at 10 mg/kg, po qd for 8 days measured 1 hr post last dose on day 8 by elevated plus maze test; format: functional
Rattus norvegicus [17] = test: Cognition enhancing activity in Charles Foster albino Rattus norvegicus (rat) assessed as transfer latency time at 10 mg/kg, po qd for 8 days measured 1 hr post last dose on day 8 by elevated plus maze test; format: functional
Rattus norvegicus [18] = test: Antiamnesic activity in scopolamine-induced amnesia Charles Foster albino Rattus norvegicus (rat) model assessed as transfer latency time at 5 mg/kg, po qd for 8 days measured 1 hr post last dose on day 8 by elevated plus maze test; format: functional
Rattus norvegicus [19] = test: Inhibition of AChE in Charles Foster albino Rattus norvegicus (rat) assessed as hydrolysis of acetylthiocholine iodide per mg of protein in hypothalamus at 5 mg/kg, po qd for 7 days measured 1 hr post last dose on day 7 by spectrophotometry (reference value: […]/mg protein); format: functional
Rattus norvegicus [20] = test: Cognition enhancing activity in Charles Foster albino Rattus norvegicus (rat) assessed as transfer latency time at 5 mg/kg, po qd for 7 days measured 1 hr post last dose on day 7 by elevated plus maze test; format: functional
Rattus norvegicus [21] = test: Inhibition of AChE in Charles Foster albino Rattus norvegicus (rat) assessed as hydrolysis of acetylthiocholine iodide per mg of protein in hypothalamus at 10 mg/kg, po qd for 7 days measured 1 hr post last dose on day 7 by spectrophotometry (reference value: […]/mg protein); format: functional
Rattus norvegicus [22] = test: Acute toxicity in Charles Foster albino Rattus norvegicus (rat) assessed as mortality at >35 mg/kg of body weight, po measured up to 24 hr; format: organism-based; conditions: in vivo
Rattus norvegicus [23] = test: Cognition enhancing activity in Charles Foster albino Rattus norvegicus (rat) assessed as transfer latency time at 10 mg/kg, po qd for 7 days measured 1 hr post last dose on day 7 by elevated plus maze test; format: functional

SMILES | Activity (Rattus norvegicus [5]) [nmol/min] | Time (Rattus norvegicus [6]) [s] | Time (Rattus norvegicus [7]) [s] | Activity (Rattus norvegicus [8]) | inhibition (Rattus norvegicus [9]) | Activity (Rattus norvegicus [10]) [nmol/min] | Time (Rattus norvegicus [11]) [s] | inhibition (Rattus norvegicus [12]) | inhibition (Rattus norvegicus [13]) | Activity (Rattus norvegicus [14]) [nmol/min] | Activity (Rattus norvegicus [15]) [nmol/min] | Time (Rattus norvegicus [16]) [s] | Time (Rattus norvegicus [17]) [s] | Time (Rattus norvegicus [18]) [s] | Activity (Rattus norvegicus [19]) [nmol/min] | Time (Rattus norvegicus [20]) [s] | Activity (Rattus norvegicus [21]) [nmol/min] | Activity (Rattus norvegicus [22]) | Time (Rattus norvegicus [23]) [s] | other results
NC(=O)CN1CCCC1=O [PIRACETAM] |  |  |  |  |  |  |  |  |  |  |  |  |  |  |  |  |  |  |  | Time (Rattus norvegicus [1]): 47 s; Time (Rattus norvegicus [2]): 43.33 s; Time (Rattus norvegicus [3]): 49.5 s; Time (Rattus norvegicus [4]): 45.67 s
C/C(=N/c1ccncc1)c1ccc(O)cc1 | 40.5 | 56.17 | 47 | Dose-dependent effect | Dose-dependent effect | 33 | 53.17 | Dose-dependent effect | Dose-dependent effect | 36.5 | 39.33 | 41.67 | 46.83 | 50.67 | 35.17 | 59.83 | 29.67 | Non-toxic | 50.83 | 
c1ccc(C(=Nc2ccncc2)c2ccccc2)cc1 | 42.17 | 44 | 45.67 | Dose-dependent effect | Dose-dependent effect | 32.83 | 46.83 | Dose-dependent effect | Dose-dependent effect | 37.5 | 37 | 41.17 | 40.17 | 41.83 | 34.67 | 49.17 | 29.67 | Non-toxic | 46.83 | 
C(=N/c1ccncc1)/c1ccccc1 | 43.83 | 51.83 | 48.83 | Dose-dependent effect | Dose-dependent effect | 33.83 | 53.83 | Dose-dependent effect | Dose-dependent effect | 36.83 | 39 | 42.67 | 47.17 | 51.5 | 29.33 | 59.67 | 35.5 | Non-toxic | 52.5 | 
Oc1ccc(/C=N\c2ccncc2)c(O)c1 | 42.83 | 51.17 | 46.5 | Dose-dependent effect | Dose-dependent effect | 30.5 | 51.67 | Dose-dependent effect | Dose-dependent effect | 34.83 | 41 | 43 | 48.67 | 51.67 | 34.5 | 60.33 | 30 | Non-toxic | 52.5 | 
COc1ccc(/C=N\c2ccncc2)cc1OC | 41.17 | 50.33 | 48.5 | Dose-dependent effect | Dose-dependent effect | 33.17 | 53.83 | Dose-dependent effect | Dose-dependent effect | 35.83 | 36.5 | 42.5 | 47.5 | 50.67 | 35.5 | 58 | 30.5 | Non-toxic | 53 | 
Oc1ccccc1/C=N\c1ccncc1 | 41.83 | 50.17 | 48.17 | Dose-dependent effect | Dose-dependent effect | 33 | 53.5 | Dose-dependent effect | Dose-dependent effect | 36.83 | 37.5 | 42.5 | 42.5 | 50.17 | 34.33 | 59.83 | 30.5 | Non-toxic | 52.17 | 
COc1ccc(/C=N\c2ccncc2)cc1 | 41.5 | 49.5 | 48.67 | Dose-dependent effect | Dose-dependent effect | 31 | 52 | Dose-dependent effect | Dose-dependent effect | 36.5 | 36 | 43.17 | 46.33 | 50.83 | 35.67 | 57.83 | 30.83 | Non-toxic | 52.67 | 
